Assay results as given in patent US20180305458A1, “METHODS AND PHARMACEUTICAL COMPOSITIONS FOR THE TREATMENT OF AUTOIMMUNE INFLAMMATORY DISEASES” (INSERM (INSTITUT NATIONAL DE LA SANTÉ ET DE LA RECHERCHE …, priority 2015, published 2018).

What was measured:
Format in all cases: in vivo
[1] = test system: IFNγ and IL-17 gene expression; assay: Th1 (IFNγ) and Th17 (IL-17) cytokine gene expression in brain of EAE mice, RT-qPCR; conditions: 30 days after EAE induction, OxA 300 μg IP or RO, vs PBS
Method: FIG. 4. […] It was determined 30 days after EAE induction of PBS, OxA300 RO, and OxA300 IP mice (from FIG. 2, panel C) by real time RT-qPCR as previously described (Proc Natl Acad Sci USA. 106(6):2012-7, 2009). *P<0.05 (nonparametric t-test, compared to PBS group).

EAE mice spinal cord = assay: Spinal cord histopathology of EAE mice; conditions: 30 days post-immunization, OxA 300 μg IP or RO, grading 0-4, vs PBS
Method: FIG. 3. […] 30 days post-immunization, mice (from the PBS, OxA300 RO, and OxA300 IP groups of FIG. 2, panel C) were sacrificed and spinal cords were harvested, fixed overnight in 4% paraformaldehyde and stored in 70% ethanol. Spinal cords were then embedded in paraffin and cut in […] section. After haematoxylin/eosin (to distinguish cell infiltration) and luxol fast blue (to label myelin) staining, photography was performed at ×1.25 and ×10 magnifications for the spinal cord sections of PBS, OxA300 RO and OxA300 IP mice. […] Histopathology grading was as follows: 0-normal appearance, 1—some infiltrated cells and low demyelination, 2—2 or 3 infiltrated areas and low demyelination, 3—numerous infiltrated areas and strong demyelination, 4—important cell infiltration throughout the tissue with strong demyelination. *P<0.05 (nonparametric t-test, compared to PBS group).

DSS-induced colitis mice = assay: DSS-induced colitis in mice, DAI score; conditions: 5% DSS orally 7 days, OxA 0.22 μmoles/kg daily intraperitoneal, scale 0 to 4
From the text: FIG. 1. Orexin A ameliorates the DAI (weight and colitis score) of DSS-induced colitis mice. Mice were orally treated with 5% DSS for 7 days in the presence or in the absence of daily intraperitoneal injection of OxA (0.22 μmoles/kg). DAI score including weight loss, severity of diarrhea, the presence of blood in the stool, inflammation and edema was estimated using a scale ranging from 0 (no symptoms) to 4 (severe colitis). DSS, dextran sulfate sodium; WT, wild type mice.
Orexin A ameliorates the DAI (weight and colitis score) of DSS-induced colitis mice. As shown in FIG. 1 when DSS-induced colitis mice were treated with OxA, the DAI score was ameliorated (about of 1.5). […] Therefore, orexin A presents potent intrinsic anti-inflammatory properties, capable of modulating the Th/Treg homeostasis during an auto-immune response as aggressive as in a chronic EAE model.

[2] = test system: chronic pancreatitis mice model induced by cerulein; assay: Cerulein-induced chronic pancreatitis mice model; conditions: OxA 1.40 μmol/Kg 2 ip injections/week
From the text: FIG. 7. Pancreatic lymphocyte infiltration determined by immunostaining of CD45+ cells. Values were expressed as percentage of stained surface. **, p<0.01
FIG. 8. Amylase activity in blood samples of control mice, cerulein-induced mice and cerulein-induced mice treated with OxA. *, p<0.05; ***, p<0.001 and NS=non-significant.
We have investigated the effect of orexin A (OxA) on chronic pancreatitis mice model induced by supraphysiologic doses of cerulein (3 intraperitoneal injections/week at 100 μg/kg). […] In mice treated by OxA (2 intraperitoneal injections/week at 1.40 μmol/Kg) the lesions induced by cerulein improved. OxA-treated mice had lower number of acino-ductal metaplasia.

regulatory T cell (Treg) = assay: Regulatory T cells in draining lymph nodes of EAE mice, flow cytometry; conditions: day 30 post-immunization, OxA 300 μg IP or RO, vs PBS
Method: FIG. 5. […] On day 30 post-immunization, draining lymph nodes were harvested from the naïve, PBS, OxA300 RO, and OxA300 IP groups (FIG. 2, panel C). Assessment by flow cytometry was performed by using the mouse regulatory T cell staining kit: lymph node Tregs were defined as CD4^+CD25^+Foxp3^+ cells and proliferative Tregs as CD4^+CD25^+Foxp3^+Ki67^+ cells.
Histograms represent the mean of the percentage (left) and the total number (right) of Tregs and proliferative Tregs (Ki67^+Tregs) for each group. Bars represent the mean+/−SEM of 5 individual mice. *P<0.05 (non parametric t-test, compared to PBS group).

[3] = test system: EAE mice (C57BL/6 wild-type); assay: EAE (MOG35-55 induced) clinical score in mice; conditions: orexin A 100 or 300 μg per mouse for 5 days, IP or retro-orbital, before onset or at moderate EAE score, scale 0-5
Method: FIG. 2. […] EAE was induced with 100 μg of MOG35-55 (Myelin Oligodendrocyte Glycoprotein 35-55) as previously described (Proc Natl Acad Sci USA. 106(6):2012-7, 2009) to 9 week old female C57BL/6 wild-type (WT) mice (n=10/group). Panels show clinical signs of EAE scored daily in a blinded fashion for over 30 days on a scale of 0-5 as follows: 0, no detectable clinical signs, 1, waddling gait with limp tail, 2, ataxia with full paralysis of one limb, 3, full paralysis of two limbs, 4, full paralysis of two limbs with important weight loss (>20% of initial weight) and 5, moribund or dead. Then, mice were given:
Panel A, intraperitoneally (IP) either PBS (group PBS IP), 100 μg of orexin A per mouse for 5 days on day 3 (=before the onset, group BOxA100 IP) or at a moderate EAE score (=1.5-2 for group OxA100 IP).
Panel B, intraperitoneally either PBS (group PBS), 100 μg (group OxA100 IP) or 300 μg (group OxA300 IP) of orexin A per mouse for 5 days at a moderate EAE score (=1.5-2).
Panel C, either PBS (group PBS), 300 μg of orexin A per mouse intraperitoneally (group OxA300 IP) or retro-orbitally (RO) (group OxA300 RO) for 5 days at a moderate EAE score (=1.5-2).
The EAE score is shown as mean+/−SEM. *P<0.05 (nonparametric t-test, compared to PBS group).
Orexin A ameliorates the DAI (weight and colitis score) of DSS-induced colitis mice. […]

## Orexin A: neuropeptide, endogenous ligand of OX1R and OX2R; SEQ ID NO:2 peplpdccrqk tcscrlyell hgagnhaagi ltlx
[1]
  Th1/Th17 pro-inflammatory responses (IFNγ, IL-17 gene expression) in CNS tissues: efficiently suppresses
[1]; listed as orexin A
  Th1/Th17 pro-inflammatory responses (IFNγ, IL-17 gene expression) in CNS tissues: drastic reduction
EAE mice spinal cord
  histopathological EAE score: significantly decreases
EAE mice spinal cord; listed as orexin A
  histopathological EAE score: drastic reduction
DSS-induced colitis mice
  DAI score (weight and colitis score): ameliorates
DSS-induced colitis mice; listed as OxA
  DAI score (weight and colitis score): ~1.5
[2]; 3 weeks cerulein 100 μg/kg 3 ip injections/week
  lesions induced by cerulein (pancreas histology): improved
[2]; cerulein mice
  amylase activity in blood samples: significantly reduced
  number of acino-ductal metaplasia: lower number
[2]; cerulein mice, quantitative imaging analysis, 18% in OxA-untreated mice
  pancreatic lymphocyte infiltration (anti-CD45 immunohistochemistry): 6 % of the pancreatic surface
[2]; cerulein mice, quantitative imaging analysis, 40% in OxA-untreated mice
  pancreatic fibrosis on Picrosirius staining: 12 % of the pancreatic surface
Regulatory T cell (Treg)
  regulatory T cell (Treg) proportion: increased
Regulatory T cell (Treg); listed as orexin A
  regulatory T cell (Treg) proportion: increase
[3]
  clinical features of EAE (EAE score): dramatically alleviate
[3]; listed as orexin A
  clinical features of EAE (EAE score): significantly ameliorated
